# Test results reported in patent US9096615B2, “Bridged bicyclic amino thiazine dioxide compounds as inhibitors of beta-secretase and methods of use thereof” (AMGEN INC., priority 2013, dated 2015).
# Where two headings read alike, the source gives them in different places.
# Key:
# BACE1 = BACE1 (Homo sapiens, UniProt P56817); assay: In vitro enzymatic BACE FRET assay; assay type: biochemical; details: read-out: BACE1 FRET assay IC50
# Method: In Vitro Enzymatic BACE FRET (Fluorescence Resonance Energy Transfer) Assay
# Enzyme Assay Data in the Example Table I
# The assay buffer used in this screen is 0.05 M acetate, pH 4.2, 10% DMSO final, 100 uM genapol (which is a nonionic detergent, below its Critical Micelle Concentration). The Beta Secretase enzyme (0.2 nM) is pre-incubated for one hour with inhibitors, typically in about 1 uL of DMSO according to a serial dilution, are added thereto. This assay is effectively started by the addition of FRET substrate (50 nM) and the combination is incubated for one hour. The FRET assay is terminated with by addition of Tris buffer, which raises the pH to neutrality, and the fluorescence is determined. The FRET substrate is a peptide with commercially available fluorophore and quencher, on opposite sides of the BACE cleavage site. Proteolytic cleavage of the FRET substrate releases quenching of fluorescence (excitation 488 nm and […]).
# [1] = test system: Aβ40 in conditioned medium of cells stably expressing Amyloid Precursor Protein (APP); assay: In vitro BACE cell-based assay (HEK cell assay, Aβ40 sandwich ELISA); details: Homo sapiens, HEK293; Aβ40, 24 h incubation; read-out: HEK cell assay IC50
# Method: In Vitro BACE Cell-Based Assay
# The cell-based assay measures inhibition or reduction of Aβ40 in conditioned medium of test compound treated cells expressing amyloid precursor protein.
# Cells stably expressing Amyloid Precursor Protein (APP) were plated at a density of 40K cells/well in 96 well plates (Costar). The cells were cultivated for 24 hours at 37° C. and 5% CO2 in DMEM supplemented with 10% FBS. The test compounds were then added to cells in 10-point dose response concentrations with the starting concentration being either 100 μM or 10 μM. The compounds were diluted from stock solutions in DMSO and the final DMSO concentration of the test compounds on cells was 0.1%. After 24 h of incubation with the test compounds the supernatant conditioned media was collected and the Aβ 40 levels were determined using a sandwich ELISA. The IC50 of the compound was calculated from the percent of control or percent inhibition of Aβ 40 as a function of the concentration of the test compound.
# The sandwich ELISA to detect Aβ 40 was performed in 96 well microtiter plates, which were pre-treated with goat anti-rabbit IgG (Pierce). The capture and detecting antibody pair that were used to detect Aβ 40 from cell supernatants were affinity purified pAb40 (Biosource) and biotinylated 6E10 (Signet Labs Inc.), respectively. The optimal concentration for the pAb40 antibody was 3 μg/ml in Superblock/TBS (Pierce) that was supplemented with 0.05% Tween 20 (Sigma). Optimal concentration for the detection antibody 6E10-biotinylated was 0.5 μg/ml in Superblock/TBS (Pierce) that had been supplemented with 2% normal goat serum and 2% normal mouse serum.
# Cellular supernatants were incubated with the capture antibody for 3 h at 4° C., followed by 3 wash steps in TBS-tween (0.05%). The detecting antibody incubation was for 2 h at 4° C., again followed by the wash steps as described previously. The final readout of the ELISA is Time-Resolved Fluorescence (counts per minute) using Delfia reagents Streptavidin-Europium and Enhancement solutions (Perkin Elmer) and the Victor 2 multilabel counter (Perkin Elmer).
# Cathepsin D (Cat D) = target: T1, Cathepsin D (Cat D) (Homo sapiens, UniProt P07339); assay: In vitro enzymatic Cathepsin D (Cat D) FRET assay; assay type: biochemical
# T1 construct: made in house; host or cells: CHO cells
# T1 sequence (P07339 65-412, species assumed): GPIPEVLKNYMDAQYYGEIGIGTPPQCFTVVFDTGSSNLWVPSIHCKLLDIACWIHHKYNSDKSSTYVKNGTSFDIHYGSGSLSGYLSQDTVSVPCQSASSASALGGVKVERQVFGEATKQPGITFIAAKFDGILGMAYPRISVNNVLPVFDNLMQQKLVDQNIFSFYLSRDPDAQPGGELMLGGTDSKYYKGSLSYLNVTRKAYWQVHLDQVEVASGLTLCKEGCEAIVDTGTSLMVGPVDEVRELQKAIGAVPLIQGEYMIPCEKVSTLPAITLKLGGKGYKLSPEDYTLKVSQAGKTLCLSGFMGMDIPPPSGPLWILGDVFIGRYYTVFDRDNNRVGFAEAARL
# Method: In Vitro Enzymatic Cathepsin D (Cat D) FRET (Fluorescence Resonance Energy Transfer) Assay
# Recombinant Cat D was expressed in CHO cells. The assay buffer for CathepsinD is 0.05 M citrate pH 3.5, 10% DMSO final, 5 mM CHAPS. The Cat D enzyme (9 nM) is pre-incubated for one hour with inhibitors, typically in about 1 uL of DMSO according to a serial dilution, is added thereto. The assays are effectively started by the addition of different FRET substrates (20 nM for Cat D) and the combination is incubated for one hour. The FRET assay is terminated with by addition of Tris buffer, which raises the pH to neutrality, and the fluorescence is determined. The FRET substrate is a peptide with commercially available fluorophore and quencher, on opposite sides of the BACE cleavage site. The Cat D substrate peptide sequence is based on sequence #1 of Table 1 from Gulnik et al. FEBS Letters v413 p 379-384 1997. Proteolytic cleavage of the FRET substrate releases quenching of fluorescence (Cat D excitation 500 nm and emission 580 nm). […]
# Where available, the in-vitro Cat D FRET assay data for each of the Examples, conducted by the first procedure, is provided in Tables 1 and 3. For example, the compound of example 28 has a Cat D IC50 value of >400 uM.
# BACE1, sequence (P56817 46-501, species assumed): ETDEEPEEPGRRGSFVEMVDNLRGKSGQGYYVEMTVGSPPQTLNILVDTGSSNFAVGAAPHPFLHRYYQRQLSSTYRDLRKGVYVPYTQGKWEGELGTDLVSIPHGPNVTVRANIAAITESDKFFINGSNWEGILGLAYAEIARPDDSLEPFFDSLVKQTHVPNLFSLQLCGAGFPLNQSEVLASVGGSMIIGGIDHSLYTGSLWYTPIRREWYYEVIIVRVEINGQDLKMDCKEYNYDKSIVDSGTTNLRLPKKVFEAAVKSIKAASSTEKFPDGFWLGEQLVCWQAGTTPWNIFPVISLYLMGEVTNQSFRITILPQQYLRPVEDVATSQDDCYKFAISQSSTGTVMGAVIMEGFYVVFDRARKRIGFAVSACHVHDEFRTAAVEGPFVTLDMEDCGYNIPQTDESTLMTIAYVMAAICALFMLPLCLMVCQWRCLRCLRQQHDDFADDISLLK
Compound,IC50 (BACE1) [µM],IC50 [1] [µM],IC50 (Cathepsin D (Cat D); read-out: CatD IC50) [µM],IC50 (Cathepsin D (Cat D); read-out: Cat D IC50 value) [µM]
"Cc1cc(OC(F)F)cnc1C(=O)Nc1ccc(F)c([C@@]2(C)N=C(N)[C@]3(C)CCC[C@@]2(C)S3(=O)=O)c1 [Example 14, N-(3-((1R,2R,5S)-4-Amino-1,2,5-trimethyl-9,9-dioxido-9-thia-3-azabicyclo[3.3.1]non-3-en-2-yl)-4-fluorophenyl)-5-(difluoromethoxy)-3-methylpicolinamide]",0.009,0.002,17.7,–
"COc1cnc(C(=O)Nc2ccc(F)c([C@@]3(C)N=C(N)[C@@]4(C)CCC[C@]3(C)S4(=O)=O)c2)cn1 [Example 15, N-(3-((1S,2R,5R)-4-Amino-1,2,5-trimethyl-9,9-dioxido-9-thia-3-azabicyclo[3.3.1]non-3-en-2-yl)-4-fluorophenyl)-5-methoxypyrazine-2-carboxamide]",0.049,0.027,138,–
"COc1cnc(C(=O)Nc2ccc(F)c([C@@]3(C)N=C(N)[C@]4(C)CCC[C@@]3(C)S4(=O)=O)c2)cn1 [Example 16, N-(3-((1R,2R,5S)-4-Amino-1,2,5-trimethyl-9,9-dioxido-9-thia-3-azabicyclo[3.3.1]non-3-en-2-yl)-4-fluorophenyl)-5-methoxypyrazine-2-carboxamide]",0.02,0.016,85.2,–
"Cc1cc(Cl)cnc1C(=O)Nc1ccc(F)c([C@@]2(C)N=C(N)[C@@H]3CCC[C@H]2S3(=O)=O)c1 [Example 17, N-(3-((1R,2R,5S)-4-Amino-2-methyl-9,9-dioxido-9-thia-3-azabicyclo[3.3.1]non-3-en-2-yl)-4-fluorophenyl)-5-chloro-3-methylpicolinamide]",0.015,0.064,2780,–
"Cc1cc(OC(F)F)cnc1C(=O)Nc1ccc(F)c([C@@]2(C)N=C(N)[C@@H]3CCC[C@H]2S3(=O)=O)c1 [Example 18, N-(3-((1R,2R,5S)-4-Amino-2-methyl-9,9-dioxido-9-thia-3-azabicyclo[3.3.1]non-3-en-2-yl)-4-fluorophenyl)-5-(difluoromethoxy)-3-methylpicolinamide]",0.043,0.018,690,–
"Cc1cc(Cl)cnc1C(=O)Nc1ccc(F)c([C@@]2(C)N=C(N)[C@H]3CCC[C@@H]2S3(=O)=O)c1 [Example 20, N-(3-((1S,2R,5R)-4-Amino-2-methyl-9,9-dioxido-9-thia-3-azabicyclo[3.3.1]non-3-en-2-yl)-4-fluorophenyl)-5-chloro-3-methylpicolinamide]",0.003,0.006,717,–
"Cc1cc(Cl)cnc1C(=O)Nc1ccc(F)c([C@@]2(C)N=C(N)[C@@H]3CC[C@H]2S3(=O)=O)c1 [Example 21, N-(3-((1R,2R,5S)-4-Amino-2-methyl-8,8-dioxido-8-thia-3-azabicyclo[3.2.1]oct-3-en-2-yl)-4-fluorophenyl)-5-chloro-3-methylpicolinamide]",0.016,0.081,1640,–
"Cc1cc(OC(F)F)cnc1C(=O)Nc1ccc(F)c([C@@]2(C)N=C(N)[C@@]3(C)CC[C@@H]2S3(=O)=O)c1 [Example 23, N-(3-((1S,2R,5R)-4-Amino-2,5-dimethyl-8,8-dioxido-8-thia-3-azabicyclo[3.2.1]oct-3-en-2-yl)-4-fluorophenyl)-5-(difluoromethoxy)-3-methylpicolinamide]",0.002,0.001,117,–
"Cc1c(C(=O)Nc2ccc(F)c([C@@]3(C)N=C(N)[C@@]4(C)CC[C@@H]3S4(=O)=O)c2)nc2ccc(Cl)cn12 [Example 25, N-(3-((1S,2R,5R)-4-Amino-2,5-dimethyl-8,8-dioxido-8-thia-3-azabicyclo[3.2.1]oct-3-en-2-yl)-4-fluorophenyl)-6-chloro-3-methylimidazo[1,2-a]pyridine-2-carboxamide]",0.021,0.004,318,–
"Cc1cc(Cl)cnc1C(=O)Nc1ccc(F)c([C@@]2(C)N=C(N)[C@]3(C)CC[C@H]2S3(=O)=O)c1 [Example 26, N-(3-((1R,2R,5S)-4-Amino-2,5-dimethyl-8,8-dioxido-8-thia-3-azabicyclo[3.2.1]oct-3-en-2-yl)-4-fluorophenyl)-5-chloro-3-methylpicolinamide]",0.008,0.017,577,–
"Cc1cc(C(F)(F)F)cnc1C(=O)Nc1ccc(F)c([C@@]2(C)N=C(N)[C@]3(C)CC[C@H]2S3(=O)=O)c1 [Example 27, N-(3-((1R,2R,5S)-4-Amino-2,5-dimethyl-8,8-dioxido-8-thia-3-azabicyclo[3.2.1]oct-3-en-2-yl)-4-fluorophenyl)-3-methyl-5-(trifluoromethyl)picolinamide]",0.014,0.002,2040,–
"Cc1c(C(=O)Nc2ccc(F)c([C@@]3(C)N=C(N)[C@]4(C)CC[C@H]3S4(=O)=O)c2)nc2ccc(Cl)cn12 [Example 28, N-(3-((1R,2R,5S)-4-Amino-2,5-dimethyl-8,8-dioxido-8-thia-3-azabicyclo[3.2.1]oct-3-en-2-yl)-4-fluorophenyl)-6-chloro-3-methylimidazo[1,2-a]pyridine-2-carboxamide]",0.07,0.01,> 400,> 400
"C[C@]1(c2cc(Nc3ncc(F)c4cc(Cl)cnc34)ccc2F)N=C(N)[C@@]2(C)CC[C@@H]1S2(=O)=O [Example 29, (1R,4R,5S)-2-Amino-4-(5-((3-chloro-5-fluoro-1,7-naphthyridin-8-yl)amino)-2-fluorophenyl)-1,4-dimethyl-8-thia-3-azabicyclo[3.2.1]oct-2-ene 8,8-dioxide]",0.001,0.052,733,–
"C[C@]12CC[C@H]([C@@](C)(c3cc(Nc4ncc(F)c5cc(Cl)cnc45)ccc3F)N=C1N)S2(=O)=O [Example 30, N-(3-((1R,2R,5S)-4-amino-2,5-dimethyl-8,8-dioxido-8-thia-3-azabicyclo[3.2.1]oct-3-en-2-yl)-4-fluorophenyl)-3-chloro-5-fluoro-1,7-naphthyridin-8-amine]",0.033,0.163,4500,–
"Cc1cc(Cl)cnc1C(=O)Nc1ccc(F)c([C@@]2(C)N=C(N)[C@@]3(C)CC[C@]2(C)S3(=O)=O)c1 [Example 31, N-(3-((1S,2R,5R)-4-amino-1,2,5-trimethyl-8,8-dioxido-8-thia-3-azabicyclo[3.2.1]oct-3-en-2-yl)-4-fluorophenyl)-5-chloro-3-methylpicolinamide]",0.004,0.012,56.9,–
"Cc1cc(Cl)cnc1C(=O)Nc1ccc(F)c([C@@]2(C)N=C(N)[C@]3(C)CC[C@@]2(C)S3(=O)=O)c1 [Example 32, N-(3-((1R,2R,5S)-4-amino-1,2,5-trimethyl-8,8-dioxido-8-thia-3-azabicyclo[3.2.1]oct-3-en-2-yl)-4-fluorophenyl)-5-chloro-3-methylpicolinamide]",0.007,0.017,131,–
